Source: patent US9994594B2, “Inhibitors of arginase and their therapeutic applications” (MARS, INCORPORATED, priority 2010, dated 2018)
Counter-ions that a name gives are not always drawn. Like-named read-outs stand apart in the source and are kept apart here.

Key:
human arginase I (ARG I) = target: T1, human arginase I (ARG I) (Homo sapiens, UniProt P05089); assay: Inhibition of arginase I, spectrophotometric urea assay at 530 nm; type: biochemical; conditions: read-out: Potency (ARG I)
T1 sequence (P05089 1-322): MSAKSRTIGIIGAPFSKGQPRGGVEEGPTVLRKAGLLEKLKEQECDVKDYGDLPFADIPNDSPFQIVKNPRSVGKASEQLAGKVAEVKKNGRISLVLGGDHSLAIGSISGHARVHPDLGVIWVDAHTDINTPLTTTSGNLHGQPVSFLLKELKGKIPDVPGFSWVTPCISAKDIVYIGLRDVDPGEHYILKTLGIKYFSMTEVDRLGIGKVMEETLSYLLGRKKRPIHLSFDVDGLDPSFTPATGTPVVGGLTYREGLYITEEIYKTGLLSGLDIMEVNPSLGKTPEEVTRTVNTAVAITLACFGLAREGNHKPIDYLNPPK
Procedure, shortened: (§1)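 IC50 was derived by regression of OD530 normalized to uninhibited-enzyme controls against log concentration. Urea from 60-min, 37 °C turnover of L-arginine with manganese sulfate was detected after acid o-phthaldialdehyde/primaquine quench and 10 min colour development. Arginase I and II came from 100 ng/ml stocks in pH 7.4 phosphate with ovalbumin.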

arginase II (ARG II) = target: T2, arginase II (ARG II) (Homo sapiens, UniProt P78540); assay: Inhibition of arginase II, spectrophotometric urea assay at 530 nm; type: biochemical
T2 sequence (P78540 23-354): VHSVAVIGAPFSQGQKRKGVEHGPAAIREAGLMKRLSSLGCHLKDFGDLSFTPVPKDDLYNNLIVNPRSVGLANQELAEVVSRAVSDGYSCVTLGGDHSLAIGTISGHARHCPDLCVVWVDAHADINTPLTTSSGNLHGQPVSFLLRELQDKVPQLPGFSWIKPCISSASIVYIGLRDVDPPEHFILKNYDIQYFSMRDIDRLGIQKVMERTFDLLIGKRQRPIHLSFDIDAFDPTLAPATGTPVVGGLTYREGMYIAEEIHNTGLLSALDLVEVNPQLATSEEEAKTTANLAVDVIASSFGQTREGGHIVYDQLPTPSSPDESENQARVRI
Procedure, shortened: as §1

[1] = Formula II compounds, Table 2-A
[2] = Formula II compounds, Table 2-A, read-out: Potency (ARG)
[3] = Formula I compounds, Table 2, read-out: Potency (ARG II)

Compound	IC50 (human arginase I (ARG I); [1])	IC50 (arginase II (ARG II); [2])	IC50 (human arginase I (ARG I); Formula I compounds, Table 2)	IC50 (arginase II (ARG II); [3])
NC(CCCCB(O)O)(C(=O)O)[C@H]1C[C@@H](NCc2ccc(OC(F)(F)F)cc2)C1 (stereo partly drawn) [Example 76-A, cis-2-amino-6-borono-2-(3-(4-(trifluoromethoxy)benzylamino)cyclobutyl)hexanoic acid dihydrochloride]	0.1 to 250 nM	0.1 to 250 nM		
NC(CCCCB(O)O)(C(=O)O)C1CCN(c2nc3ccc(Cl)cc3o2)CC1 (stereo not drawn) [4-A, 2-amino-6-borono-2-[(6-chlorobenzoxazol-2-yl)-piperidin-4-yl)-hexanoic acid hydrochloride]	251 to 1000 nM	1000 to 2000 nM		
NC(CCCCB(O)O)(C(=O)O)C1CCN(Cc2cccc(C(=O)O)c2)CC1 (stereo not drawn) [Example 105-A, 3-((4-(1-amino-5-borono-1-carboxypentyl)piperidin-1-yl)methyl)benzoic acid dihydrochloride]	251 to 1000 nM	251 to 1000 nM		
NC(CCCCB(O)O)(C(=O)O)[C@H]1CCN(Cc2ccccc2)C1 (stereo partly drawn) [Example 68-A, 2-amino-2-((S)-1-benzylpyrrolidin-3-yl)-6-boronohexanoic acid dihydrochloride]	251 to 1000 nM	251 to 1000 nM		
CC1(C)CCC(N2CCC(C(N)(CCCCB(O)O)C(=O)O)CC2)CC1 (stereo not drawn) [25-A, 2-amino-6-borono-2-[1-(4,4-dimethylcyclohexyl)piperidin-4-yl]hexanoic acid dihydrochloride]	0.1 to 250 nM	251 to 1000 nM		
NC(CCCCB(O)O)(C(=O)O)C1CCN(Cc2cccc3c2OCCC3)CC1 (stereo not drawn) [Example 60-A, 2-amino-6-borono-2-(1-(chroman-8-ylmethyl)piperidin-4-yl)hexanoic acid dihydrochloride]	0.1 to 250 nM	0.1 to 250 nM		

Next, values leading:

IC50 (human arginase I (ARG I); [1])	IC50 (arginase II (ARG II); [2])	IC50 (human arginase I (ARG I); Formula I compounds, Table 2)	IC50 (arginase II (ARG II); [3])	Compound
		251 to 1000 nM	1000 to 2000 nM	NC(CCCCB(O)O)(CCN1CCC1)C(=O)O (stereo not drawn) [compound 75, 2-amino-2-(2-(azetidin-1-yl)ethyl)-6-boronohexanoic acid dihydrochloride]
		> 5000 nM	> 5000 nM	NC(CCCCB(O)O)(CCOc1ccc(Cl)cc1Cl)C(=O)O (stereo not drawn) [compound 94, 2-Amino-6-borono-2-[2-(2,4-dichlorophenoxy)-ethyl]-hexanoic acid hydrochloride]
		2000 to 5000 nM	1000 to 2000 nM	CC(C)CC(CO)NCC(N)(CCCCB(O)O)C(=O)O [compound 88, 2-amino-6-borono-2-(((S)-1-hydroxy-4-methylpentan-2-ylamino)methyl)hexanoic acid dihydrochloride]
		> 5000 nM	> 5000 nM	COc1ccc(OCCC(N)(CCCCB(O)O)C(=O)O)cc1 (stereo not drawn) [compound 93, 2-amino-6-borono-2-(2-(4-methoxyphenoxy)ethyl)hexanoic acid hydrochloride]
		> 5000 nM	> 5000 nM	NC(CCCCB(O)O)C(=O)c1ccccc1 (stereo not drawn) [compound 114, 5-amino-6-oxo-6-phenylhexylboronic acid hydrochloride]
		0.1 to 250 nM	251 to 1000 nM	NC(CCCCB(O)O)(CCC1Cc2ccccc2CN1Cc1ccc(Cl)cc1)C(=O)O (stereo not drawn) [compound 132, 2-amino-6-borono-2-(2-(2-(4-chlorobenzyl)-1,2,3,4-tetrahydroisoquinolin-3-yl)ethyl)hexanoic acid dihydrochloride]
		> 5000 nM	> 5000 nM	NC(CCCCB(O)O)(CCN1CCN(c2ccccc2)CC1)C(=O)O (stereo not drawn) [compound 76, 2-amino-6-borono-2-(2-(4-phenylpiperazin-1-yl)ethyl)hexanoic acid dihydrochloride]
		0.1 to 250 nM	251 to 1000 nM	CCN1Cc2ccccc2CC1CCC(N)(CCCCB(O)O)C(=O)O (stereo not drawn) [compound 130, 2-amino-6-borono-2-(2-(2-ethyl-1,2,3,4-tetrahydroisoquinolin-3-yl)ethyl)hexanoic acid dihydrochloride]
		251 to 1000 nM	1000 to 2000 nM	NC(CCCCB(O)O)(CCN1CCc2ccsc2C1)C(=O)O (stereo not drawn) [compound 62, 2-amino-6-borono-2-(2-(4,5-dihydrothieno[2,3-c]pyridin-6(7H)-yl)ethyl)hexanoic acid dihydrochloride]
